Laboratory results as given in publication PMC10819888, “Benzimidazole-Based Derivatives as Apoptotic Antiproliferative Agents: Design, Synthesis, Docking, and Mechanistic Studies” (Molecules, 2024).

Experiments:
[1] = system: SK-OV-3; test: NCI-60 five-dose assay; type: cell-based, human; conditions: SK-OV-3, Ovarian Cancer
[2] = system: SNB-75; test: NCI-60 one-dose assay; type: cell-based; conditions: Homo sapiens, SNB-75 (CNS cancer), read-out: Cell Inhibition Percent
[3] = system: SF-539; test: NCI-60 one-dose assay; type: cell-based; conditions: Homo sapiens, SF-539 (CNS cancer), read-out: Cell Inhibition Percent
[4] = system: HS 578T; test: NCI-60 one-dose assay; type: cell-based; conditions: Homo sapiens, HS 578T (Breast Cancer), read-out: Cell Inhibition Percent
[5] = system: A549/ATCC; test: NCI-60 one-dose assay; type: cell-based; conditions: Homo sapiens, A549/ATCC (Non-Small Cell Lung Cancer), read-out: Cell Inhibition Percent
[6] = system: ACHN; test: NCI-60 one-dose assay; type: cell-based; conditions: Homo sapiens, ACHN (Renal Cancer), read-out: Cell Inhibition Percent
[7] = system: SNB-19; test: NCI-60 one-dose assay; type: cell-based; conditions: Homo sapiens, SNB-19 (CNS cancer), read-out: Cell Inhibition Percent
[8] = system: MCF7; test: NCI-60 one-dose assay; type: cell-based; conditions: Homo sapiens, MCF7 (Breast Cancer), read-out: Cell Inhibition Percent
[9] = system: NCI-H522; test: NCI-60 one-dose assay; type: cell-based; conditions: Homo sapiens, NCI-H522 (Non-Small Cell Lung Cancer), read-out: Cell Inhibition Percent
[10] = system: OVCAR-8; test: NCI-60 one-dose assay; type: cell-based; conditions: Homo sapiens, OVCAR-8 (ovarian cancer), read-out: Cell Inhibition Percent
[11] = system: BT-549; test: NCI-60 one-dose assay; type: cell-based; conditions: Homo sapiens, BT-549 (Breast Cancer), read-out: Cell Inhibition Percent
[12] = system: HOP-92; test: NCI-60 one-dose assay; type: cell-based; conditions: Homo sapiens, HOP-92 (Non-Small Cell Lung Cancer), read-out: Cell Inhibition Percent
[13] = system: T-47D; test: NCI-60 one-dose assay; type: cell-based; conditions: Homo sapiens, T47D, T-47D (Breast Cancer), read-out: Cell Inhibition Percent
[14] = system: K-562; test: NCI-60 one-dose assay; type: cell-based; conditions: Homo sapiens, K562, K-562 (Leukemia), read-out: Cell Inhibition Percent
[15] = system: SN12C; test: NCI-60 one-dose assay; type: cell-based; conditions: Homo sapiens, SN12C (Renal Cancer), read-out: Cell Inhibition Percent
[16] = system: MOLT-4; test: NCI-60 one-dose assay; type: cell-based; conditions: Homo sapiens, MOLT-4 (Leukemia), read-out: Cell Inhibition Percent
[17] = system: SF-268; test: NCI-60 one-dose assay; type: cell-based; conditions: Homo sapiens, SF-268 (CNS cancer), read-out: Cell Inhibition Percent
[18] = system: NCI/ADR-RES; test: NCI-60 one-dose assay; type: cell-based; conditions: Homo sapiens, NCI/ADR-RES (ovarian cancer), read-out: Cell Inhibition Percent
[19] = system: MDA-MB 231; test: NCI-60 one-dose assay; type: cell-based; conditions: Homo sapiens, MDA-MB 231 (Breast Cancer), read-out: Cell Inhibition Percent
[20] = system: A498; test: NCI-60 one-dose assay; type: cell-based; conditions: Homo sapiens, A498 (Renal Cancer), read-out: Cell Inhibition Percent
[21] = system: NCI-H322M; test: NCI-60 one-dose assay; type: cell-based; conditions: Homo sapiens, NCI-H322M (Non-Small Cell Lung Cancer), read-out: Cell Inhibition Percent
[22] = system: UACC-62; test: NCI-60 one-dose assay; type: cell-based; conditions: Homo sapiens, UACC-62 (Melanoma), read-out: Cell Inhibition Percent
[23] = system: 786-0; test: NCI-60 one-dose assay; type: cell-based; conditions: Homo sapiens, 786-0 (Renal Cancer), read-out: Cell Inhibition Percent
[24] = system: SR; test: NCI-60 one-dose assay; type: cell-based; conditions: Homo sapiens, SR (Leukemia), read-out: Cell Inhibition Percent
[25] = system: RXF 393; test: NCI-60 one-dose assay; type: cell-based; conditions: Homo sapiens, RXF 393 (Renal Cancer), read-out: Cell Inhibition Percent
[26] = system: SK-MEL-28; test: NCI-60 one-dose assay; type: cell-based; conditions: Homo sapiens, SK-MEL-28 (Melanoma), read-out: Cell Inhibition Percent
[27] = system: HCT-116; test: NCI-60 one-dose assay; type: cell-based; conditions: Homo sapiens, HCT-116 (Colon Cancer), read-out: Cell Inhibition Percent
[28] = system: OVCAR-5; test: NCI-60 one-dose assay; type: cell-based; conditions: Homo sapiens, OVCAR-5 (ovarian cancer), read-out: Cell Inhibition Percent
[29] = system: CCRF-CEM; test: NCI-60 one-dose assay; type: cell-based; conditions: Homo sapiens, CCRF-CEM (Leukemia), read-out: Cell Inhibition Percent
[30] = system: NCI-H460; test: NCI-60 one-dose assay; type: cell-based; conditions: Homo sapiens, NCI-H460 (Non-Small Cell Lung Cancer), read-out: Cell Inhibition Percent

COc1ccc(C=NNC(=O)c2ccc3[nH]c(-c4ccc(Cl)cc4)nc3c2)cc1 [Compound 4g, N′-(4-Methoxybenzylidene)-2-(4-chlorophenyl)-1H-benzimidazole-5-carbohydrazide]
GI50 ([1]; Homo sapiens, read-out: GI50 Conc. per Cell Line): 2.3 µM | CC50 ([1]; Homo sapiens, read-out: LC50 (the source's name)): 59.1 µM | TGI [1]: 12.80 µM | inhibition at 10 µM [2]: 8.15% | inhibition at 10 µM [3]: 57.4% | inhibition at 10 µM [4]: 67.7% | inhibition at 10 µM [5]: 88% | inhibition at 10 µM [6]: 78.1% | inhibition at 10 µM [7]: 75.8% | inhibition at 10 µM [8]: 83.3% | inhibition at 10 µM [9]: 17.4% | inhibition at 10 µM [10]: 68.7% | inhibition at 10 µM [11]: 43.1% | inhibition at 10 µM [12]: 64% | inhibition at 10 µM [13]: 76.7% | inhibition at 10 µM [14]: 68.1% | inhibition at 10 µM [15]: 93.8% | inhibition at 10 µM [16]: 31.8% | inhibition at 10 µM [17]: 80.1% | inhibition at 10 µM [18]: 26.4% | inhibition at 10 µM [19]: 60.2% | inhibition at 10 µM [20]: 33.4% | inhibition at 10 µM [21]: 44.1% | inhibition at 10 µM [22]: 69.1% | inhibition at 10 µM [23]: 96.8% | inhibition at 10 µM [24]: 99.3% | inhibition at 10 µM [25]: 56.2% | inhibition at 10 µM [26]: 87.5% | inhibition at 10 µM [27]: 81% | inhibition at 10 µM [28]: 22.7% | inhibition at 10 µM [29]: 34.7% | inhibition at 10 µM [30]: 94.1%

CCNC(=S)NNC(=O)c1ccc2[nH]c(-c3ccc(Cl)cc3)nc2c1 [Compound 5]
inhibition at 10 µM [2]: 7.77% | inhibition at 10 µM [3]: 12.2% | inhibition at 10 µM [4]: 9.75% | inhibition at 10 µM [5]: 6.17% | inhibition at 10 µM [6]: 6.31% | inhibition at 10 µM [7]: 2.37% | inhibition at 10 µM [8]: 22.1% | inhibition at 10 µM [9]: 5.4% | inhibition at 10 µM [10]: 6.74% | inhibition at 10 µM [11]: 0% | inhibition at 10 µM [12]: 1.09% | inhibition at 10 µM [13]: 18.4% | inhibition at 10 µM [14]: 88.4% | inhibition at 10 µM [15]: 10.1% | inhibition at 10 µM [16]: 90% | inhibition at 10 µM [17]: 1.33% | inhibition at 10 µM [18]: 1.07% | inhibition at 10 µM [19]: 20.5% | inhibition at 10 µM [20]: 57.7% | inhibition at 10 µM [21]: 3.36% | inhibition at 10 µM [22]: 1.88% | inhibition at 10 µM [23]: 0% | inhibition at 10 µM [24]: 88.9% | inhibition at 10 µM [25]: 7.61% | inhibition at 10 µM [26]: 0% | inhibition at 10 µM [27]: 0% | inhibition at 10 µM [28]: 3.26% | inhibition at 10 µM [29]: 86.9% | inhibition at 10 µM [30]: 1.06%

CCn1c(-c2ccc3[nH]c(-c4ccc(Cl)cc4)nc3c2)n[nH]c1=S [Compound 6, 4-ethyl-5-(2-(4-chlorophenyl)-1H-benzimidazol-5-yl)-2,4-dihydro-3H-1,2,4triazole-3-thione]
inhibition at 10 µM [2]: 3.91% | inhibition at 10 µM [3]: 3.69% | inhibition at 10 µM [4]: 1.05% | inhibition at 10 µM [5]: 0% | inhibition at 10 µM [6]: 0% | inhibition at 10 µM [7]: 0% | inhibition at 10 µM [8]: 14.6% | inhibition at 10 µM [9]: 1.85% | inhibition at 10 µM [10]: 0% | inhibition at 10 µM [11]: 7.91% | inhibition at 10 µM [12]: 0.32% | inhibition at 10 µM [13]: 0.3% | inhibition at 10 µM [14]: 1.43% | inhibition at 10 µM [15]: 0% | inhibition at 10 µM [16]: 2.85% | inhibition at 10 µM [17]: 1.04% | inhibition at 10 µM [18]: 0% | inhibition at 10 µM [19]: 2.36% | inhibition at 10 µM [20]: 56.9% | inhibition at 10 µM [21]: 0% | inhibition at 10 µM [22]: 1.04% | inhibition at 10 µM [23]: 0% | inhibition at 10 µM [24]: 17.5% | inhibition at 10 µM [25]: 13.9% | inhibition at 10 µM [26]: 0% | inhibition at 10 µM [27]: 0% | inhibition at 10 µM [28]: 0% | inhibition at 10 µM [29]: 0% | inhibition at 10 µM [30]: 0%
